Results as given in PubChem BioAssay AID2060884 (Molecular Pharmacology Branch, DTP, NCI, 2025).

System: NCI-H929 complex spheroids, viability % test/control
Test: Anticancer human tumor NCI-H929 cell line growth inhibition [RAS];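 note: compound exposure lasted seven days before viability was read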;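 for viability, T/C: 100% = DMSO vehicle control viability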
Details: for viability, T/C: stronger effect = lower value
How it was run: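 Multi-cell-type spheroids: tumor cells plus HUVEC endothelial cells and mesenchymal stem cells. RAS-pathway inhibitors were combined with targeted agents, each dosed in half-log steps down from clinical Cmax, or from 10 microM when Cmax was unknown.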

Work on `CCC(CC)c1cc(NC2CCC(N)C2)n2nccc2n1` (centres undefined) + CCn1c(-c2cccnc2C(C)OC)c2c3cc(ccc31)N1CCOC(CC(NC(=O)C(C(C)C)N(C)C(=O)C3(F)CCN(C(=O)C#CC(C)(C)N(C)C)CC3)C(=O)N3CCCC(N3)C(=O)OCC(C)(C)C2)C1 yielded an IC50 (curve of first compound, second compound 0.000949 µM) of 1.54 µM, an IC50 (curve of first compound, second compound 0.003 µM) of 1.57 µM and an IC50 (curve of first compound, second compound 0.00949 µM) of 1.54 µM. The IC50 (curve of first compound, second compound 0.03 µM) was 1.34 µM, the IC50 (curve of first compound, second compound 0.0949 µM) was 1.4 µM and the IC50 (curve of first compound, second compound 0.3 µM) was 1.11 µM. It also gave a viability, T/C (second compound 0.000949 µM, first compound 0.0316 µM) of 102%, a viability, T/C (second compound 0.000949 µM, first compound 0.1 µM) of 92.6% and a viability, T/C (second compound 0.000949 µM, first compound 0.316 µM) of 92.5%. The viability, T/C (second compound 0.000949 µM, first compound 1 µM) was 79.5%, the viability, T/C (second compound 0.000949 µM, first compound 3.16 µM) was 0.2% and the viability, T/C (second compound 0.000949 µM, first compound 10 µM) was 0.2%. For the same compound, the viability, T/C (second compound 0.003 µM, first compound 0.0316 µM) was 100%, the viability, T/C (second compound 0.003 µM, first compound 0.1 µM) was 98.8% and the viability, T/C (second compound 0.003 µM, first compound 0.316 µM) was 93.5%. For the same compound, the viability, T/C (second compound 0.003 µM, first compound 1 µM) was 82.1%, the viability, T/C (second compound 0.003 µM, first compound 3.16 µM) was 0.2% and the viability, T/C (second compound 0.003 µM, first compound 10 µM) was 0.19%. The viability, T/C (second compound 0.00949 µM, first compound 0.0316 µM) was 102%, the viability, T/C (second compound 0.00949 µM, first compound 0.1 µM) was 96.5% and the viability, T/C (second compound 0.00949 µM, first compound 0.316 µM) was 92.5%. The viability, T/C (second compound 0.00949 µM, first compound 1 µM) was 80.1%, the viability, T/C (second compound 0.00949 µM, first compound 3.16 µM) was 0.2% and the viability, T/C (second compound 0.00949 µM, first compound 10 µM) was 0.18%. For the same compound, the viability, T/C (second compound 0.03 µM, first compound 0.0316 µM) was 97.3%, the viability, T/C (second compound 0.03 µM, first compound 0.1 µM) was 93.8% and the viability, T/C (second compound 0.03 µM, first compound 0.316 µM) was 93.5%. For the same compound, the viability, T/C (second compound 0.03 µM, first compound 1 µM) was 67%, the viability, T/C (second compound 0.03 µM, first compound 3.16 µM) was 0.19% and the viability, T/C (second compound 0.03 µM, first compound 10 µM) was 0.2%. It also gave a viability, T/C (second compound 0.0949 µM, first compound 0.0316 µM) of 98.1%, a viability, T/C (second compound 0.0949 µM, first compound 0.1 µM) of 96.4% and a viability, T/C (second compound 0.0949 µM, first compound 0.316 µM) of 89.2%. For the same compound, the viability, T/C (second compound 0.0949 µM, first compound 1 µM) was 70.4%, the viability, T/C (second compound 0.0949 µM, first compound 3.16 µM) was 0.22% and the viability, T/C (second compound 0.0949 µM, first compound 10 µM) was 0.22%. For the same compound, the viability, T/C (second compound 0.3 µM, first compound 0.0316 µM) was 102%, the viability, T/C (second compound 0.3 µM, first compound 0.1 µM) was 96.7% and the viability, T/C (second compound 0.3 µM, first compound 0.316 µM) was 94.3%. The viability, T/C (second compound 0.3 µM, first compound 1 µM) was 55.1%, the viability, T/C (second compound 0.3 µM, first compound 3.16 µM) was 0.25% and the viability, T/C (second compound 0.3 µM, first compound 10 µM) was 0.22%.

In the case of `C=CC(=O)N1CCN(c2nc(OCC3CCCN3C)nc3c(F)c(-c4nc(N)cc(C)c4C(F)(F)F)c(Cl)cc23)C(C)C1` (centres undefined), the viability, T/C (compound 0.00316 µM) is reported as 102% [middle of 12 runs], the viability, T/C (compound 0.01 µM, compound 0.0316 µM) is reported as 103% and the viability, T/C (compound 0.01 µM, compound 0.1 µM) is reported as 105%. For the same compound, the viability, T/C (compound 0.01 µM, compound 0.316 µM) was 101%, the viability, T/C (compound 0.01 µM, compound 1 µM) was 106% and the viability, T/C (compound 0.01 µM) was 101% [middle of 13 runs]. For the same compound, the viability, T/C (compound 0.0316 µM, compound 0.00316 µM) was 94.3%, the viability, T/C (compound 0.0316 µM, compound 0.01 µM) was 101% and the viability, T/C (compound 0.0316 µM, compound 0.1 µM) was 101%. For the same compound, the viability, T/C (compound 0.0316 µM, compound 0.316 µM) was 108%, the viability, T/C (compound 0.0316 µM, compound 1 µM) was 109% and the viability, T/C (compound 0.0316 µM) was 103% [middle of 13 runs]. It also gave a viability, T/C (compound 0.1 µM, compound 0.00316 µM) of 98.2%, a viability, T/C (compound 0.1 µM, compound 0.01 µM) of 104% and a viability, T/C (compound 0.1 µM, compound 0.0316 µM) of 99.5%. For the same compound, the viability, T/C (compound 0.1 µM, compound 0.316 µM) was 109%, the viability, T/C (compound 0.1 µM, compound 1 µM) was 111% and the viability, T/C (compound 0.1 µM) was 100% [middle of 12 runs]. It also gave a viability, T/C (compound 0.316 µM, compound 0.00316 µM) of 102%, a viability, T/C (compound 0.316 µM, compound 0.01 µM) of 105% and a viability, T/C (compound 0.316 µM, compound 0.0316 µM) of 106%. The viability, T/C (compound 0.316 µM, compound 0.1 µM) was 102%, the viability, T/C (compound 0.316 µM, compound 1 µM) was 113% and the viability, T/C (compound 0.316 µM) was 100% [middle of 13 runs]. It also gave a viability, T/C (compound 1 µM, compound 0.00316 µM) of 107%, a viability, T/C (compound 1 µM, compound 0.01 µM) of 104% and a viability, T/C (compound 1 µM, compound 0.0316 µM) of 105%. For the same compound, the viability, T/C (compound 1 µM, compound 0.1 µM) was 109%, the viability, T/C (compound 1 µM, compound 0.316 µM) was 110% and the viability, T/C (compound 1 µM) was 104% [middle of 13 runs]. The IC50 (compound alone, run of 09/09/2024) was > 1 µM and the IC50 (curve of compound) was > 1 µM.
